Test results: ChEMBL document CHEMBL5046281, “N-Aryl Mercaptopropionamides as Broad-Spectrum Inhibitors of Metallo-β-Lactamases” (J Med Chem, 2022)
Calls of active or inactive are those of the source. The calls are words filed in the database; no cut-off is given here.

How the values were obtained:
Klebsiella pneumoniae [1] = test: Antibacterial activity against imipenem-resistant NDM-1-producing Klebsiella pneumoniae T2301 infected in Galleria mellonella larvae assessed as survival rate at 38.4 ug injected via proleg measured after 3 days in presence of imipenem by Kaplan-Meier method; assay type: functional; conditions: dose 38.4 µg; time 3 day
BlaVIM-1 = BlaVIM-1 (Escherichia coli, UniProt Q8GDC1); test: Inhibition of Escherichia coli VIM-1 using fluorocillin as substrate incubated for 30 mins by fluorescence based assay
HepG2 = test: Cytotoxicity against human HepG2 cells assessed as reduction in cell viability at 100 uM relative to control; assay type: toxicity, cell-based; conditions: hepg2, 100 µM
Enterobacter cloacae [2] = test: Potentiation of imipenem-induced antibacterial activity against VIM-1 producing Enterobacter cloacae T2353 clinical isolates assessed as imipenem MIC at 128 mg/l by microdilution method; assay type: functional
Pseudomonas aeruginosa = test: Inhibition of Pseudomonas aeruginosa quorum sensing system LasB at 100 uM
Escherichia coli [3] = test: Potentiation of imipenem-induced antibacterial activity against NDM-1 producing Escherichia coli assessed as fold change in imipenem MIC at 32 ug/ml by microdilution method; assay type: functional; conditions: dose 32 µg/ml
[4] = molecular target: Neutrophil collagenase (Homo sapiens) (UniProt P22894); test: Inhibition of human MMP-8 at 100 uM relative to control
Sequence of Neutrophil collagenase (Homo sapiens) (P22894 101-467 limits assumed): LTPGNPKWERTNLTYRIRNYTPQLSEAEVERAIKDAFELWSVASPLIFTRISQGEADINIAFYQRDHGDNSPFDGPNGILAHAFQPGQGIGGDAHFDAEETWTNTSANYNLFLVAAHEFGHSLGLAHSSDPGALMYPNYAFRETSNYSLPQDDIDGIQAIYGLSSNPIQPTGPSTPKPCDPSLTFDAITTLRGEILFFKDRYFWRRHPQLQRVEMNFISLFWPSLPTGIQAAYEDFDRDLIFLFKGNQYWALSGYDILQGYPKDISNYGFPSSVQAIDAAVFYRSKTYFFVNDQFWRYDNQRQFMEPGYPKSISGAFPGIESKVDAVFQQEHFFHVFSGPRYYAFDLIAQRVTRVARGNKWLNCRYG

[5] = molecular target: Matrix metalloproteinase-14 (Homo sapiens, UniProt P50281); test: Inhibition of human MMP-14
[6] = Inhibition of Escherichia coli NDM-1 using fluorocillin as substrate incubated for 30 mins by fluorescence based assay
[7] = Selectivity ratio of MIC for antibacterial activity against IMP-1 producing Pseudomonas aeruginosa T2325 clinical isolates to MIC for potentiation of imipenem-induced antibacterial activity against IMP-1 producing Pseudomonas aeruginosa T2325 clinical isolates assessed as imipenem MIC at 128 mg/l; assay type: functional
Escherichia coli [8] = test: Potentiation of imipenem-induced antibacterial activity against KPC-2 producing Escherichia coli T2435 clinical isolates assessed as imipenem MIC at 128 mg/l by microdilution method; assay type: functional
Acinetobacter baumannii = test: Potentiation of imipenem-induced antibacterial activity against OXA-23 producing Acinetobacter baumannii T2434 clinical isolates assessed as imipenem MIC at 128 mg/l by microdilution method; assay type: functional
Escherichia coli [9] = test: Potentiation of imipenem-induced antibacterial activity against NDM-7 producing Escherichia coli T2239 clinical isolates assessed as imipenem MIC at 128 mg/l by microdilution method; assay type: functional
Escherichia coli [10] = test: Potentiation of imipenem-induced antibacterial activity against NDM-1 producing Escherichia coli assessed as fold change in imipenem MIC at 64 ug/ml by microdilution method; assay type: functional; conditions: dose 64 µg/ml
Escherichia coli [11] = test: Potentiation of imipenem-induced antibacterial activity against NDM-1 producing Escherichia coli assessed as fold change in imipenem MIC at 16 ug/ml by microdilution method; assay type: functional; conditions: dose 16 µg/ml
[12] = Lipophilicity, log D of the compound at pH 7.4 by HPLC-MS analysis; assay type: physicochemical; conditions: buffer
Escherichia coli [13] = test: Potentiation of imipenem-induced antibacterial activity against NDM-1 producing Escherichia coli assessed as imipenem MIC at 32 ug/ml by microdilution method (reference value: 128 ug/ml); assay type: functional; conditions: dose 32 µg/ml
[14] = Selectivity ratio of MIC for antibacterial activity against KPC-2 producing Escherichia coli T2435 clinical isolates to MIC for potentiation of imipenem-induced antibacterial activity against KPC-2 producing Escherichia coli T2435 clinical isolates assessed as imipenem MIC at 128 mg/l; assay type: functional
Escherichia coli [15] = test: Antibacterial activity against NDM-1 expressing Escherichia coli isolates assessed as inhibition of bacterial growth by microdilution method; assay type: functional, organism-based
Escherichia coli [16] = test: Potentiation of imipenem-induced antibacterial activity against NDM-1 producing Escherichia coli assessed as imipenem MIC at 8 ug/ml by microdilution method (reference value: 128 ug/ml); assay type: functional; conditions: dose 8 µg/ml
[17] = Selectivity ratio of MIC for antibacterial activity against NDM-1 producing Serratia marcescens T2352 clinical isolates to MIC for potentiation of imipenem-induced antibacterial activity against NDM-1 producing Serratia marcescens T2352 clinical isolates assessed as imipenem MIC at 128 mg/l; assay type: functional
Klebsiella pneumoniae [18] = test: Antibacterial activity against imipenem-resistant NDM-1-producing Klebsiella pneumoniae T2301 infected in Galleria mellonella larvae assessed as survival rate at 38.4 ug injected via proleg measured after 1 day by Kaplan-Meier method; assay type: functional; conditions: dose 38.4 µg
Klebsiella pneumoniae [19] = test: Selectivity ratio of MIC for antibacterial activity against NDM-1 producing Klebsiella pneumoniae T2301 clinical isolates to MIC for potentiation of imipenem-induced antibacterial activity against NDM-1 producing Klebsiella pneumoniae T2301 clinical isolates assessed as imipenem MIC at 128 mg/l
[20] = Selectivity ratio of MIC for antibacterial activity against NDM-5 producing Escherichia coli T2351 clinical isolates to MIC for potentiation of imipenem-induced antibacterial activity against NDM-5 producing Escherichia coli T2351 clinical isolates assessed as imipenem MIC at 128 mg/l; assay type: functional
Enterobacter cloacae [21] = test: Potentiation of imipenem-induced antibacterial activity against NDM-1 producing Enterobacter cloacae T2311 clinical isolates assessed as imipenem MIC at 128 mg/l by microdilution method; assay type: functional
Serratia marcescens = test: Potentiation of imipenem-induced antibacterial activity against NDM-1 producing Serratia marcescens T2352 clinical isolates assessed as imipenem MIC at 128 mg/l by microdilution method; assay type: functional
Klebsiella pneumoniae [22] = test: Potentiation of imipenem-induced antibacterial activity against NDM-1 producing Klebsiella pneumoniae T2301 clinical isolates assessed as imipenem MIC at 128 mg/l by microdilution method; assay type: functional
[23] = Selectivity ratio of MIC for antibacterial activity against NDM-1 producing Enterobacter cloacae T2311 clinical isolates to MIC for potentiation of imipenem-induced antibacterial activity against NDM-1 producing Enterobacter cloacae T2311 clinical isolates assessed as imipenem MIC at 128 mg/l; assay type: functional
Escherichia coli [24] = test: Potentiation of imipenem-induced antibacterial activity against NDM-1 producing Escherichia coli assessed as imipenem MIC at 2 ug/ml by microdilution method (reference value: 128 ug/ml); assay type: functional; conditions: dose 2 µg/ml
Escherichia coli [25] = test: Potentiation of imipenem-induced antibacterial activity against NDM-5 producing Escherichia coli T2351 clinical isolates assessed as imipenem MIC at 128 mg/l by microdilution method; assay type: functional
Escherichia coli [26] = test: Antibacterial activity against VIM-1 expressing Escherichia coli isolates assessed as inhibition of bacterial growth by microdilution method; assay type: functional, organism-based
A549 = test: Cytotoxicity against human A549 cells assessed as reduction in cell viability at 100 uM relative to control; assay type: toxicity, cell-based; conditions: a549, 100 µM
Klebsiella pneumoniae [27] = test: Antibacterial activity against imipenem-resistant NDM-1-producing Klebsiella pneumoniae T2301 at 128 mg/L measured after 24 hrs in presence of imipenem by time-kill assay; assay type: functional, organism-based
[28] = Selectivity ratio of MIC for antibacterial activity against VIM-1 producing Pseudomonas aeruginosa T2357 clinical isolates to MIC for potentiation of imipenem-induced antibacterial activity against VIM-1 producing Pseudomonas aeruginosa T2357 clinical isolates assessed as imipenem MIC at 128 mg/l; assay type: functional

SMILES: O=C(CCS)Nc1cccc(C(=O)O)c1
- Activity (Klebsiella pneumoniae [1]): <=56%
- IC50 (BlaVIM-1): 1.2 µM
- Activity (HepG2): < 10%
- MIC (Enterobacter cloacae [2]): 2 µg/mL
- inhibition (Pseudomonas aeruginosa): Active
- fold change (FC) (Escherichia coli [3]): 16
- inhibition [4]: < 10%
- IC50 [5]: 68 µM
- IC50 [6]: 4 µM
- Ratio [7]: 1
- MIC (Escherichia coli [8]): 4 µg/mL
- MIC (Acinetobacter baumannii): 32 µg/mL
- MIC (Escherichia coli [9]): 2 µg/mL
- fold change (FC) (Escherichia coli [10]): 64
- fold change (FC) (Escherichia coli [11]): 2
- logD [12]: -0.96
- MIC (Escherichia coli [13]): 8 µg/mL
- Ratio [14]: 1
- Activity (Escherichia coli [15]): inactive
- MIC (Escherichia coli [16]): 64 µg/mL
- Ratio [17]: 64
- Activity (Klebsiella pneumoniae [18]): <20%
- Ratio (Klebsiella pneumoniae [19]): 32
- Ratio [20]: 4
- MIC (Enterobacter cloacae [21]): 1 µg/mL
- MIC (Serratia marcescens): 4 µg/mL
- MIC (Klebsiella pneumoniae [22]): 0.5 µg/mL
- Ratio [23]: 8
- MIC (Escherichia coli [24]): 128 µg/mL
- MIC (Escherichia coli [25]): 2 µg/mL
- Activity (Escherichia coli [26]): inactive
- Activity (A549): < 10%
- Activity (Klebsiella pneumoniae [27]): Active
- Ratio [28]: 1
